Patent US6914045B2, “Glycopeptide antibiotics” (Wyeth Holdings Corporation, priority 2001, dated 2005)

Key:
Test in all cases: in vitro antibacterial evaluation, MIC by broth dilution
Type in all cases: cell-based
Escherichia coli = settings: 18 hours at 35° C.
Enterococcus sp. = settings: broth dilution, 18 hours at 35° C.
Method: (§1) Methods for in vitro Antibacterial Evaluation (Table 1)
(§2) The minimum inhibitory concentration (MIC), the lowest concentration of the antibiotic which inhibits growth of the test organism, is determined by the broth dilution method using Muller-Hinton II […] (Baltimore Biological Laboratories) following the recommendations of the National Committee for Clinical Laboratory Standards [Methods for dilution antimicrobial susceptibility tests for bacteria that grow aerobically, approved standard M7-A2, National Committee for Clinical Laboratory Standards, Villanova, Pa.].
(§3) An inoculum level of 5×10^5 CFU/mL, and a range of antibiotic concentrations (64-0.06 μg/mL) is used. […] The test organisms include a spectrum of Gram-positive bacteria comprised of Staphylococcus sp., Streptococcus sp. and Enterococcus sp. These organisms include recent clinical isolates that are resistant to methicillin, penicillin and/or vancomycin.

Staphylococcus sp. = settings: broth dilution, 18 hours at 35° C.
Method: as §1, §2, §3

Streptococcus sp. = settings: broth dilution, 18 hours at 35° C.
Method: as §1, §2, §3

N=C1NCC(C(O)C2NC(=O)C(CC3CCC(OC4OC(CO)C(OC5OC6COC7(OC6C(O)C5O)C5CC6CC(C5)CC7C6)C(O)C4O)CC3)NC(=O)C(CC3CCCCC3)NC(=O)CNC(=O)C(CO)NC(=O)C(C(O)C3CNC(=N)N3C3OC(CO)C(O)C(O)C3O)NC2=O)N1 (single isomer, unassigned) [Example 223]
64 µg/mL: MIC Enterococcus avium (GC 4558) (Enterococcus sp.) | MIC Enterococcus faecalis (GC 4553) (Enterococcus sp.) | MIC Enterococcus faecium (GC 4557) (Enterococcus sp.) | MIC Enterococcus faecalis (GC 4553) (Enterococcus sp.; inoculum 5×10^5 CFU/mL, strain GC 4553) | MIC Enterococcus faecium (GC 4557) (Enterococcus sp.; inoculum 5×10^5 CFU/mL, strain GC 4557) | MIC Enterococcus avium (GC 4558) (Enterococcus sp.; inoculum 5×10^5 CFU/mL, strain GC 4558) | MIC Staphylococcus aureus (GC 3051) (Staphylococcus sp.; strain GC 3051) | MIC Staphylococcus aureus (GC 4541) (Staphylococcus sp.; strain GC 4541) | MIC Staphylococcus aureus (GC 4542) (Staphylococcus sp.; strain GC 4542) | MIC Staphylococcus aureus-SMITH (GC 4543) (Staphylococcus sp.; strain GC 4543) | MIC Staphylococcus aureus (GC 4544) (Staphylococcus sp.; strain GC 4544) | MIC Staphylococcus aureus (GC 4545) (Staphylococcus sp.; strain GC 4545) | MIC Staphylococcus haemolyticus (GC 4546) (Staphylococcus sp.; strain GC 4546) | MIC Coagulase Negative Staphylococcus (GC 4547) (Staphylococcus sp.; strain GC 4547) | MIC Coagulase Negative Staphylococcus (GC 4548) (Staphylococcus sp.; strain GC 4548) | MIC Coagulase Negative Staphylococcus (GC 4549) (Staphylococcus sp.; strain GC 4549) | MIC Coagulase Negative Staphylococcus (GC 4551) (Staphylococcus sp.; strain GC 4551) | MIC Streptococcus pneumoniae (ATCC 6301) (Streptococcus sp.) | MIC Streptococcus pyogenes (GC 4563) (Streptococcus sp.) | MIC Streptococcus pneumoniae (ATCC 6301) (Streptococcus sp.; inoculum 5×10^5 CFU/mL, strain ATCC 6301) | MIC Streptococcus pyogenes (GC 4563) (Streptococcus sp.; inoculum 5×10^5 CFU/mL, strain GC 4563)
32 µg/mL: MIC Escherichia coli (GC 4560) (Escherichia coli) | MIC Streptococcus pneumoniae (GC 1894) (Streptococcus sp.) | MIC Streptococcus pneumoniae (GC 1894) (Streptococcus sp.; inoculum 5×10^5 CFU/mL, strain GC 1894)
>64 µg/mL: MIC Escherichia coli (ATCC 25922) (Escherichia coli) | MIC Escherichia coli (GC 4559) (Escherichia coli) | MIC Enterococcus faecalis (ATCC 29212) (Enterococcus sp.) | MIC Enterococcus faecalis (GC 2242) (Enterococcus sp.) | MIC Enterococcus faecalis (GC 2691) (Enterococcus sp.) | MIC Enterococcus faecalis (GC 3059) (Enterococcus sp.) | MIC Enterococcus faecalis (GC 4552) (Enterococcus sp.) | MIC Enterococcus faecalis (GC 4554) (Enterococcus sp.) | MIC Enterococcus faecalis (GC 6189) (Enterococcus sp.) | MIC Enterococcus faecium (GC 2243) (Enterococcus sp.) | MIC Enterococcus faecium (GC 4556) (Enterococcus sp.) | MIC Enterococcus faecalis (ATCC 29212) (Enterococcus sp.; inoculum 5×10^5 CFU/mL, strain ATCC 29212) | MIC Enterococcus faecalis (GC 2242) (Enterococcus sp.; inoculum 5×10^5 CFU/mL, strain GC 2242) | MIC Enterococcus faecium (GC 2243) (Enterococcus sp.; inoculum 5×10^5 CFU/mL, strain GC 2243) | MIC Enterococcus faecalis (GC 2691) (Enterococcus sp.; inoculum 5×10^5 CFU/mL, strain GC 2691) | MIC Enterococcus faecalis (GC 3059) (Enterococcus sp.; inoculum 5×10^5 CFU/mL, strain GC 3059) | MIC Enterococcus faecalis (GC 4552) (Enterococcus sp.; inoculum 5×10^5 CFU/mL, strain GC 4552) | MIC Enterococcus faecalis (GC 4554) (Enterococcus sp.; inoculum 5×10^5 CFU/mL, strain GC 4554) | MIC Enterococcus faecium (GC 4556) (Enterococcus sp.; inoculum 5×10^5 CFU/mL, strain GC 4556) | MIC Enterococcus faecalis (GC 6189) (Enterococcus sp.; inoculum 5×10^5 CFU/mL, strain GC 6189) | MIC Staphylococcus aureus (ATCC 29213) (Staphylococcus sp.; strain ATCC 29213) | MIC Staphylococcus aureus (GC 1131) (Staphylococcus sp.; strain GC 1131) | MIC Staphylococcus aureus (GC 3053) (Staphylococcus sp.; strain GC 3053) | MIC Streptococcus agalactiae (GC 4564) (Streptococcus sp.) | MIC Streptococcus pneumoniae (GC 4565) (Streptococcus sp.) | MIC Streptococcus agalactiae (GC 4564) (Streptococcus sp.; inoculum 5×10^5 CFU/mL, strain GC 4564) | MIC Streptococcus pneumoniae (GC 4565) (Streptococcus sp.; inoculum 5×10^5 CFU/mL, strain GC 4565)
